This is an account of results in patent US6447988B2, “In vitro assay method for the study of brain aging” (The Regents of the University of California, priority 1997, dated 2002).

Experiment [1] relates to hippocampal slices. The following applies: cited from earlier work.
Experiment [2] deals with hippocampal slices. The experiment is described as follows: Western blot analyses of cultured hippocampal slices exposed to ZPAD. The following applies: for replication of ZPAD-induced alterations by more selective inhibitors of cathepsin L: cultured brain slices. Format: cell-based, Sprague-Dawley rats. The method, then:
(§1) Hippocampal slices were prepared from 10-13 day-old Sprague-Dawley rats and maintained in culture using the method of Stoppini et al. (1991, supra). Briefly, the hippocampi were dissected in ice-cold artificial cerebrospinal fluid (124 mM NaCl, 10 mM glucose, 3 mM KCl, 1.25 mM KH2PO4, 4 mM MgSO4, 2 mM CaCl2, 26 mM NaHCO3, 2 mM ascorbate, 0.1 mM ascorbate, pH=7.3), and 400 μm thick slices were produced on a McIlwain tissue chopper. One ml of culture media (50% Basal Medium Eagle, 25% Earle's Balance Salt Solution, 25% horse serum), supplemented with 136 mM NaCl, 2 mM CaCl2, 2.5 mM MgSO4, 5 mM NaHCO3 3 mM glutamine, 40 mM glucose, 0.5 mM ascorbic acid, 20 mM HEPES (pH=7.3), 1 mg/L insulin, 5 U/ml penicillin and 5 mg/L streptomycin, was added to each well of a six well culture plate, and inserts containing a polystyrene membrane (pore size: […]) were placed in each well to support the hippocampal sections. Slices were incubated in a humidified, 37° C. atmosphere containing 5% CO2 and maintained in culture for at least nine days before experiments were initiated. Media was replenished on the first day after explantation, and every 2-3 days during the initial culture period. A subset of the hippocampal slices in the six-well culture dishes was exposed to media (as described above, with heat-treated horse serum) containing 30-50 μM ZPAD (BACHEM Bioscience, Inc., Torrance, Calif.). Tissue was harvested after three to six days of continuous ZPAD exposure.
A general note: Immunoblotting shows a protein as a band on a membrane.

Experiment [3] has as its system hippocampal slices. The experiment is described as follows: Electron microscopy of cultured hippocampal slices treated with ZPAD. The experiment is classed as cell-based, Sprague-Dawley rats. On the procedure: as §1
Furthermore, lysosomes in CA1 and CA3 pyramidal cells were not restricted to the soma but instead were located throughout dendritic processes. Clusters of lysosomes were commonly found within bulging segments of proximal dendrites that were notable for an absence of nicrotubules and neurofilaments. […] These appendages are similar in form and content to structures previously referred to as “meganeurites.” While pyknotic nuclei were sometimes encountered, most of the cells in slices exposed to ZPAD for six days appeared relatively normal. […]

The test system of another experiment is cathepsin D mRNA. The experiment is described as follows: In situ hybridization for cathepsin D mRNA in cultured hippocampal slices. Format: cell-based, Sprague-Dawley rats. The settings on record: four days of exposure to 45 μM ZPAD. The method, then: as §1, with “Tissue was harvested after three to six days of continuous ZPAD exposure.” left out
Setting [4] is: chloroquine treatment of long-term hippocampal slices.
Where [5] appears, read: 45 μM ZPAD for six days, electron microscope.

Consider `CCN(CC)CCCC(C)Nc1ccnc2cc(Cl)ccc12` (centres unmarked) [chloroquine], for which, in the experiment with hippocampal slices [1] (setting [4]), the “carboxy-terminal fragments of the amyloid precursor protein (APP)” value is “appearance” and the synaptophysin entry is on record as “loss”.
Consider `CC(C)C[C@H](NC(=O)[C@@H](NC(=O)N[C@@H](Cc1ccccc1)C(=O)O)[C@@H]1CCN=C(N)N1)C(=O)N[C@H](C=O)Cc1ccccc1` [chymostatin], for which the “replication of ZPAD-induced alterations by more selective inhibitors of cathepsin L” value in the experiment with hippocampal slices [2] is listed as “replicated several of the ZPAD-induced alterations”.
Consider `C=C(C)[C@H]1CN[C@H](C(=O)O)[C@H]1CC(=O)O` [kainic acid], for which, in the experiment on hippocampal slices [1] (pre-treatment with kainic acid before chloroquine), the “rate of build-up of β-amyloid-containing fragments and loss of synaptophysin” value is “more rapid”.
Consider “N-CBZ-L-phenylalanyl-L-alanine-diazomethylketone [ZPAD]”, for which the “levels of 25-30 kDa fragments of amyloid precursor protein” value in the experiment on hippocampal slices [2] (45 μM ZPAD for six days, Western blot) is reported as “increased levels”. The “levels of active cathepsin D protein in lysosomal and non-lysosomal (cytosolic) compartments” value in the experiment on hippocampal slices [2] (Western blots of subcellular fractions of ZPAD-exposed slices) was “markedly elevated levels”. For the same compound, in the experiment with hippocampal slices [2] (slices exposed to 30-50 μM ZPAD for three to six days, Western blot, p<0.001, n=8), the “increase in the protein level of cathepsin D” value is 3 fold. Also, the “degradation of cytoskeletal proteins” value with hippocampal slices [2] (slices exposed to 30-50 μM ZPAD for three to six days, Western blot, tubulin, spectrin, microtubule-associated protein-2, tau) is “proteolytic degradation of four cytoskeletal proteins”. Moreover, in the experiment with hippocampal slices [3] (setting [5]), the “meganeurite formation on CA1 neurons” value is given as “a small percentage of CA1 neurons”; the “number of lysosomes in the perikarya of neurons and glia” value is “dramatic increase”. Also, in the experiment on hippocampal slices [3] (ZPAD for six days, then seven additional days in culture without ZPAD), the “meganeurite-containing CA1 pyramidal cells after washout” value is listed as “more commonly found”. In addition, the “increase in the level of cathepsin D mRNA, CA3 neurons” value in the experiment with cathepsin D mRNA (CA3 neurons) was 56%. In the experiment on cathepsin D mRNA (p<0.01), the “increase in the level of cathepsin D mRNA, glial cells of subfield CA1 stratum radiatum” value turned out to be 71%.
With “N-CBZ-L-phenylalanyl-L-phenylalanine-diazomethylketone”, in the experiment with hippocampal slices [2], the “replication of ZPAD-induced alterations by more selective inhibitors of cathepsin L” value is recorded as “replicated several of the ZPAD-induced alterations”.
